91 compounds from a melting point compilation (Tetko et al.; mined from patent text by program, amines drawn as free bases though some values may be those of a salt) can be followed below.

The melting point is the temperature, or range, at which the solid turns liquid.

Some results are limits rather than exact numbers.

Consider `O=C(c1ccccc1)c1ccc(SC(Cl)(Cl)Cl)cc1`, for which the melting point fell in the range of 62 to 63 °C.

`CC(NC(=S)NCC(COC(=O)C(C)(C)C)Cc1ccccc1)c1ccc(NS(C)(=O)=O)cc1` (stereo unspecified) had a melting point of 58 to 62 °C.

For `C#CCOc1cc(Oc2cc(Cl)ccc2Cl)ncn1`, the melting point came out at 87.7 °C.

Turning to `Cc1onc(NS(=O)(=O)c2ccccc2-c2ccc(-c3ncccn3)cc2Cn2ccc(C(F)(F)F)n2)c1C`, the melting point was in the range of 108 to 114 °C.

Compound `Cc1ccc(-c2c(-c3ccc(S(C)(=O)=O)cc3)[nH]c3ccccc23)cc1` returned a melting point of 197 to 198 °C.

Regarding `OC1CCCc2nc3cc(Cl)ccc3c(NCc3ccc(F)cc3)c21` (stereo unspecified), the melting point lay within 187 to 188 °C.

Turning to `COc1ccc(Nc2c([N+](=O)[O-])cc([N+](=O)[O-])cc2C(F)(F)F)nc1`, the melting point lay within 102 to 105 °C.

`CCOC(=O)c1cc(-c2ccccc2)oc1-c1ccc(OC)c(OC)c1` displayed a melting point of 68 °C.

The compound `CN1CCC(c2cccc3c2C[C@H](NC(=O)c2ccc(C(F)(F)F)cc2)CC3)CC1` gave a melting point of 163 to 166 °C.

For `OC(Cn1cncn1)(Cn1cnc(C=Cc2ccc(OC(F)(F)F)cc2)n1)c1ccc(F)cc1F` (stereo unspecified), the melting point was in the range of 149 to 151 °C.

The compound `O=C1CSCC(C(=O)O)N1` (stereo unspecified) showed a melting point of 152 to 153 °C.

Regarding `Cc1ccc(S(=O)c2cccc(-c3nc(=O)c4ccccc4s3)n2)cc1` (stereo unspecified), the melting point turned out to be 228 °C.

Take `CC(CNC12CC3CC(CC(C3)C1)C2)N1CCN(c2ccccn2)CC1` (stereo unspecified): the melting point is 67 to 68 °C.

As to `Nc1nc(CCCO)nc2c1ncn2C1OC(CO)C(O)C1S` (stereo unspecified), the melting point was 117 to 119 °C.

`CC(C)(C)c1nc2cc3c(cc2[nH]1)NC(=O)C3(C)C`: the melting point was > 300 °C.

For `COC(=O)CSc1cc(NC(=S)N2CCCN2)c(F)cc1Cl`, the melting point fell in the range of 137 to 141 °C.

Compound `CN1Cc2cccnc2N(c2cccc(F)c2)C1=O` gave a melting point of 189 to 192 °C.

As for `COc1ccc(C(=O)Nc2ccc(C(=O)O)cc2)cc1C(C)(C)C`, the melting point worked out at 250 °C.

`Cc1nc(N2CCCC(C(O)c3ccccc3)C2=O)sc1C(=O)NCc1ccccc1` (stereo unspecified) gave a melting point of 74 to 75 °C.

The compound `CC(C)(C)C1CSC2(CCC(C=C(Br)Br)CC2)SC1` (stereo unspecified) gave a melting point of 143 °C.

In turn, `O=C(NCCN1CCCC1)c1cccc(-c2cccc(OCCc3ccc(Cl)cc3Cl)n2)c1` registered a melting point of 115 to 116 °C.

Compound `CS(=O)(=O)NC1CCN(c2ccc(C#N)c3ccccc23)C1` (stereo unspecified) had a melting point of 128 to 129 °C.

In the case of `CCCCc1nn(-c2ccccc2C(F)(F)F)c(=O)n1Cc1ccc(-c2ccccc2S(=O)(=O)NC(=O)c2ccccc2)cc1`, the melting point lay in the range of 91 to 93 °C.

Consider `CC(C)(C)N1CC2(CCN(Cc3ccccc3)CC2)OC1=O`, for which the melting point lay within 110 to 112 °C.

`Cc1cc(NC(=O)C(C)(O)COc2ccc(CCCl)c(F)c2)ccc1[N+](=O)[O-]` (stereo unspecified): the melting point is 77 to 79 °C.

As to `CS(=O)(=O)c1ccc(-c2nnc(Cl)cc2-c2ccc(Cl)cc2)cc1`, the melting point worked out at 190 °C.

Compound `CN1c2ccc([N+](=O)[O-])cc2CS1(=O)=O` registered a melting point of 214 to 216 °C.

On to `CC(C(N)=O)c1ccc2c(c1)CCc1ccccc1C2=O` (stereo unspecified), for which the melting point came to 175 °C.

With `CCc1cc(Cl)cc(S(N)(=O)=O)c1N`, the melting point is 134 to 135 °C.

For the compound `Cc1ccc(S(=O)(=O)OCC2COc3ccc(N)c(C=NO)c3O2)cc1` (stereo unspecified), the melting point was in the range of 164 to 166 °C.

The compound `Clc1ccc2nc(NC3CCCCC3)n3nc(-c4ccco4)nc3c2c1` had a melting point of 158 to 160 °C.

Compound `CNC(=O)C1=CC(CF)(CF)Oc2ccc(Br)cc21` yielded a melting point of 187 to 188 °C.

In the case of `O=C(CCCl)NC12CCCC(C1)C1CCC2C1` (stereo unspecified), the melting point was 192 to 195 °C.

With `O=C(c1ccc(Br)cc1)c1ncccc1O`, the melting point lay within 94 to 95 °C.

With `O=c1oc2c(c(O)c1-c1ccccc1)CCCC2`, the melting point came out at 168 °C.

As to `CN1CCN(c2cc(Cl)cc3c2c(=O)n(CCc2ccccc2)c(=O)n3Cc2ccccc2)CC1`, the melting point is 136 to 138 °C.

The compound `Cc1ccc(S(=O)(=O)OCC2Cc3cccc(C=CC(C)(C)C)c3O2)cc1` (stereo unspecified) came in with a melting point of 85 to 88 °C.

On to `Cc1nc(N2CCN(C)CC2)ccc1N1CCCn2c1nc1c(Cl)ccc(C(OC(F)F)C(F)(F)F)c12` (stereo unspecified), for which the melting point was in the range of 193 to 195 °C.

On to `ClCc1cc2ccccc2c(-c2ccccc2)c1CCl`, for which the melting point is 93 °C.

With `O=S(=O)(C(/C=C/c1ccc(Cl)cc1)c1c(F)c(F)c(F)c(F)c1F)C(/C=C/c1ccc(Cl)cc1)c1c(F)c(F)c(F)c(F)c1F` (stereo unspecified), the melting point lay within 154 to 155 °C.

`CSc1nnc(-c2ccc(F)cc2)c(-c2ccc(F)cc2)n1` gave a melting point of 132 to 135 °C.

`CS(=O)(=O)Nc1cc([C@@H](O)CNC2CCN(c3ccc(S(=O)(=O)NCC(=O)O)cc3)CC2)ccc1O` returned a melting point of 170 to 172 °C.

In the case of `C=CCn1nc(-c2sc(C(=O)NCc3ccccn3)nc2-c2ccccc2)ccc1=O`, the melting point lay within 117 to 118 °C.

Take `CCc1cccc2c3c([nH]c12)C(CC)(CC=N)OCC3` (stereo unspecified): the melting point was 101 to 103 °C.

As for `CS(=O)(=O)N1C[C@H](S)C[C@H]1CSCc1ccccc1`, the melting point is 102 to 104 °C.

`COC1C2=C3C(=CN1OC)OCCC3CC(C(C)=O)C2` (stereo unspecified): the melting point was in the range of 100 to 102 °C.

The compound `Cc1ccc2ncc(C(=O)NC3CCCC3)c(=O)n2c1` returned a melting point of 162 to 164 °C.

`FC(F)(F)c1nnc(Sc2ccc(Cl)c(Cl)c2)s1` registered a melting point of 46 °C.

Take `NC(=O)N(O)Cc1ccc(CCCCCC(F)(F)F)s1`: the melting point was 94 °C.

In the case of `COc1c(C#Cc2ccccc2)c(=O)c2ccc(Cl)cc2[nH]c1=O`, the melting point fell in the range of 204 to 205 °C.

For the compound `COc1ccc(COc2ccc(C=C3SC(=S)N(CC(=O)O)C3=O)cc2OCc2ccc(OC)cc2)cc1`, the melting point lay in the range of 151 to 155 °C.

The compound `Cc1occc1COC(C)CN(O)C(N)=O` (stereo unspecified) registered a melting point of 101 to 102 °C.

The compound `COc1nc(Cl)nc2c1c(C#N)cn2C1OC(CO)C(O)C1O` (stereo unspecified) showed a melting point of 194 to 195 °C.

The compound `COC(=O)C(=O)c1c(Cl)cc(OCCOc2ccc3ccccc3c2)cc1Cl` displayed a melting point of 142 to 144 °C.

In turn, `Cc1nc(N2C(=O)N(CCc3ccc(F)cc3)CC2O)sc1C(=O)NCc1cccnc1` (stereo unspecified) showed a melting point of 182 to 184 °C.

The compound `CONS(=O)(=O)c1cc(Cl)ccc1Cl` registered a melting point of 127 to 128 °C.

Compound `CNc1nc(Nc2ccc(Cl)c(Cl)c2)ncc1NS(C)(=O)=O` had a melting point of 263 to 266 °C.

`COc1ccccc1N1CCN(CCCOc2ccc(-c3nnco3)cc2)CC1` displayed a melting point of 139 to 140 °C.

`CC(=O)N(C)c1ccnc2c(NC(=O)c3c(Cl)cccc3Cl)cccc12` displayed a melting point of 227 to 230 °C.

As for `c1ccc(N2c3ccccc3[C@@H]3CNCC[C@H]32)cc1`, the melting point lay in the range of 74 to 76 °C.

Turning to `CC(C)(OCc1cc2nc(Cl)ccc2n1S(=O)(=O)c1ccc2c(c1)OCO2)C(=O)O`, the melting point is 172 °C.

In the case of `COc1cc(C)c(NC(=O)CC(C)(C)C)c(C)c1Cc1ccc(C(C)C)cc1`, the melting point is 181 to 182 °C.

Consider `CCOC(=O)COCCN(C)C(=O)c1c(-c2ccc(C(C)(C)C)cc2)n(C)n(-c2ccc(C#N)cc2)c1=O`, for which the melting point was 192 to 194 °C.

`Nc1cccc(C2CN3CCSC3=N2)c1` (stereo unspecified) returned a melting point of 177 to 179 °C.

For `CCOC(=O)C(N=Nc1ccccc1C(=O)c1ccccn1)NC(=O)CCl` (stereo unspecified), the melting point was in the range of 160 to 162 °C.

For the compound `NS(=O)(=O)c1cc2[nH]c(=O)c(=O)[nH]c2cc1[N+](=O)[O-]`, the melting point is > 330 °C.

`NC1=NC(c2ccc(OC(F)(F)F)cc2)(c2cccc(CCC3CC3)c2)C2=NCCCN12` (stereo unspecified) returned a melting point of 65 to 77 °C.

In turn, `CN(C)C=C1C(=O)N(c2cccc(C#N)c2)c2ccccc21` displayed a melting point of 140 to 143 °C.

In turn, `O=C(NCCO)/C(=C/c1ccc(C2CC2)cc1)NC(=O)c1ccc(OCCc2ccc3c(c2)OCO3)cc1` displayed a melting point of 113 to 115 °C.

As for `Nc1c(C(F)(F)F)cc2[nH]c(=O)c(=O)[nH]c2c1Cl`, the melting point was > 360 °C.

For `COc1ccc(CC(=O)N2CCC[C@H]2C(=O)O)cc1`, the melting point fell in the range of 138 to 139 °C.

The compound `CN(C)S(=O)(=O)c1cn(C)c2cc(Cl)ccc2c1=O` displayed a melting point of 207 to 209 °C.

`Nc1ccc(O)c(CSCCO)c1` displayed a melting point of 121 °C.

On to `Cc1cccc(C(=O)C2CCCc3cccnc32)c1` (stereo unspecified), for which the melting point was in the range of 211 to 213 °C.

`CN(C)S(=O)(=O)c1cccc(Cl)n1` came in with a melting point of 53 to 55 °C.

The compound `CCOC(=O)/C=C/c1cc(OCc2ccccc2)ccc1OCC` returned a melting point of 124 to 125 °C.

Compound `CCCCCCCCCCCCCCCCC(Br)CO` (stereo unspecified) registered a melting point of 39 to 39.5 °C.

In the case of `NNc1nnc(Cl)cc1C(=O)O`, the melting point was in the range of 198 to 201 °C.

As for `COC(=O)COc1ccc(OC/C=C(/c2ccc(I)cc2)c2ccc3oc(C)cc3c2)cc1C`, the melting point was 121 to 128 °C.

As for `CCCCc1n[nH]c(C(F)(F)CCC)n1`, the melting point fell in the range of 92 to 93 °C.

As to `CCCN(CCC)Cc1csc(-c2ncn3c2[C@@H]2CCCN2C(=O)c2c(Cl)cccc2-3)n1`, the melting point is 213 to 214 °C.

In turn, `Nc1cccc(C(=O)c2cccc(C(=O)c3cccc(N)c3)c2)c1` returned a melting point of 114 to 117 °C.

Compound `O=C(OCCN1CCOCC1)c1cn2c(n1)COc1ccccc1-2` showed a melting point of 142 to 143 °C.

Take `CCc1nc2ccccc2c(=O)n1-c1ccccc1C`: the melting point fell in the range of 93 to 94 °C.

For the compound `Cc1cc(SC2=C(O)CC(CCc3ccc(O)cc3)(C3CCCC3)OC2=O)c(C(C)(C)C)cc1OCCO` (stereo unspecified), the melting point is 113 to 115 °C.

Regarding `N#CC(CF)(CF)CF`, the melting point is 70 to 75 °C.

In the case of `CC1CC2=CC(=O)CCC2C2C(F)CC3(C)C(=O)CCC3C12` (stereo unspecified), the melting point was 84.8 °C.

Turning to `O=C(c1cccc(F)c1)N1Cc2c(-c3ccc(F)cc3)ncn2-c2ccccc21`, the melting point is 176 to 177 °C.

Compound `O=C(c1cccnc1)N1CCCC(c2ccccc2)=N1` displayed a melting point of 84 to 86 °C.

With `CCCC(=O)NCCCc1cccc(OCC2CC2)c1`, the melting point fell in the range of 36 to 37 °C.

The compound `N#Cc1ccc(C(Cc2ccc(C#N)cn2)Cn2cncn2)cc1` (stereo unspecified) registered a melting point of 98 °C.
